# Results as given in patent US10287251B2, “Pyrazole derivative or pharmaceutically acceptable salt thereof” (KISSEI PHARMACEUTICAL CO., LTD., priority 2015, dated 2019).
# Molecular target: T1, TRPM8 (Rattus norvegicus, UniProt Q8R455)
# T1 construct: from tissue; host or cells: whole animal, female SD rats (in vivo)
# Experiment: Confirmation test of inhibitory effects on icilin-induced wet-dog shakes
# Format: in vivo
# Settings: female SD rats, oral dose 0.3 mg/kg, icilin 1 mg/kg i.p. 1 hour after dosing, shakes counted for 5 minutes
# Excerpt: Further, TRPM8 inhibitory activity can be evaluated by the efficacy inhibiting the wet-dog shake action which is induced by the administration of Icilin, TRPM8 agonist. Furthermore, an effect on overactive bladder (OAB) can be evaluated by an elongation of micturition interval against overactive bladder induced by acetic acid in accordance with a similar method described in J. Urol., 2001, 166, 1142.
# Confirmation Test of Inhibitory Effects on Icilin-induced Wet-dog Shakes
# Test compounds were dissolved in dimethylacetamide (wako), and 0.5% methylcellulose solution (wako) was added to make the solution or suspension containing 5% of dimethylacetatnide. At a dose of 0.3 to 10 mg/kg/5mL of test compounds were orally administered to female SD rats. After 1 hour, wet-dog shakes were induced by the intraperitoneal injection of icilin (1 mg/kg) which was dissolved in polyethylene glycol 400 (wako). From 5 minutes after the administration of icilin, wet-dog shakes were counted for 5 minutes. For control example, vehicle (a mixture of dimethylacetamide (wako): 0.5% methylcellulose (wako)=5:95) was administrated similarly, and the number of wet-dog shakes was counted in the same manner. A percent inhibition of wet-dog shakes by test compound was calculated from the following formula: [1-(test compound wet-dog shake count/vehicle wet-dog shake count)]×100.
# T1 sequence (Q8R455 whole entry): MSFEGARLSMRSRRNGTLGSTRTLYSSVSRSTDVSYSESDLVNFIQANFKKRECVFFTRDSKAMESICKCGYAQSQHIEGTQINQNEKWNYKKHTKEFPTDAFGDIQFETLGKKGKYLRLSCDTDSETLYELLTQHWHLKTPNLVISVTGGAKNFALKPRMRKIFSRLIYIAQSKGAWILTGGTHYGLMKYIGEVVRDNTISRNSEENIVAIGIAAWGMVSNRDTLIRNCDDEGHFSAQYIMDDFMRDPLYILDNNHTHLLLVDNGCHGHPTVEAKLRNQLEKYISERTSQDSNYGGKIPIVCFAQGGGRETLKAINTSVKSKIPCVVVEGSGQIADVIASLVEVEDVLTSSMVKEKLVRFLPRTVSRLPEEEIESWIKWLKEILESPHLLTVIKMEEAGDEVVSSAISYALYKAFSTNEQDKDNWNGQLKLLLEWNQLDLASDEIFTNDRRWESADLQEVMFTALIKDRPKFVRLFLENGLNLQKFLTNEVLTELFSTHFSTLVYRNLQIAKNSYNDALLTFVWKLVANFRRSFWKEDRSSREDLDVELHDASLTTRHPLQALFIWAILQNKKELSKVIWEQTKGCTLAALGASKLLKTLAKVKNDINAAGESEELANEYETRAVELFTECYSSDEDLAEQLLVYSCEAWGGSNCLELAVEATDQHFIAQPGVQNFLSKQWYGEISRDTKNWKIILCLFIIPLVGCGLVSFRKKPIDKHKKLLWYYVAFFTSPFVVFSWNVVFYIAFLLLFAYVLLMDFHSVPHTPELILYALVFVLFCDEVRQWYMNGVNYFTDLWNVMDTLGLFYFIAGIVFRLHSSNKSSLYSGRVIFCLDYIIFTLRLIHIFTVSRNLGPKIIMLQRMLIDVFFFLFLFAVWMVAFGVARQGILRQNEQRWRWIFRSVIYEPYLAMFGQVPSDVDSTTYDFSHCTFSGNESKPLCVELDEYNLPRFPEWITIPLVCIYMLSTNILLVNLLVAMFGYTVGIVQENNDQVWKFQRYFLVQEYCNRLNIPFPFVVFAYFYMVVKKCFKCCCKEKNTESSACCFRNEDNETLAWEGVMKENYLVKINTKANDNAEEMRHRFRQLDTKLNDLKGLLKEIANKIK
row,% inhibition of Wet-Dog Shake,Compound
1,90%,CO[C@H](CO)[C@@H](Cc1ccccn1)NC(=O)c1ccccc1-c1cc(-c2ccc(F)cc2)[nH]n1 [Example 43-13]

# Same assay, conditions: female SD rats, oral dose 1 mg/kg, icilin 1 mg/kg i.p. 1 hour after dosing, shakes counted for 5 minutes
row,% inhibition of Wet-Dog Shake,Compound
1,86%,CO[C@H](CO)[C@@H](Cc1ncccn1)NC(=O)c1cccc(F)c1-c1n[nH]c(-c2ccc(F)cc2)c1F [Example 27-18]
2,55%,O=C(N[C@H](Cn1cccn1)[C@H](O)CF)c1cccc(F)c1-c1cc(-c2ccc(F)cc2)[nH]n1 [Example 1-245]
3,72%,COC[C@@H](O)[C@@H](Cc1ccccn1)NC(=O)c1cccc(F)c1-c1cc(-c2ccc(F)cc2)[nH]n1 [Example 27-4]
4,50%,O=C(N[C@@H](CO)Cc1ccccn1)c1ccccc1-c1n[nH]c(-c2ccc(F)cc2)c1F [Example 1-97]
5,65%,O=C(N[C@@H](CO)Cc1ncccc1F)c1cccc(F)c1-c1cc(-c2ccc(F)cc2)[nH]n1 [Example 1-167]
6,100%,O=C(N[C@H](Cc1ccccn1)[C@@H](F)CO)c1cccc(F)c1-c1cc(-c2ccc(F)cc2)[nH]n1 [Example 43-23]
7,62%,"O=C(N[C@@H](CCO)Cc1ccccn1)c1cccc(F)c1-c1n[nH]c(-c2ccc(F)cc2)c1F [Example 28-1, 3-Fluoro-2-[4-fluoro-5-(4-fluorophenyl)-1H-pyrazol-3-yl]-N-[(2R)-4-hydroxy-1-(pyridin-2-yl)butan-2-yl]benzamide]"
8,100%,CO[C@H](CO)[C@@H](Cc1ccccn1)NC(=O)c1cccc(F)c1-c1n[nH]c(-c2ccc(F)cc2)c1F [Example 43-14]
9,59%,O=C(N[C@@H](CO)C(F)(F)c1ccccn1)c1cccc(F)c1-c1cc(-c2ccc(F)cc2)[nH]n1 [Example 1-230]
10,100%,O=C(N[C@H](Cc1ccccn1)[C@H](F)CO)c1cccc(F)c1-c1cc(-c2ccc(F)cc2)[nH]n1 [Example 43-24]
11,68%,COC[C@@H](O)[C@@H](Cc1ccccn1)NC(=O)c1cccc(F)c1-c1n[nH]c(-c2ccc(F)cc2)c1F [Example 1-213]
12,56%,O=C(N[C@H](Cc1ncccn1)[C@H](F)CO)c1cccc(F)c1-c1n[nH]c(-c2ccc(F)cc2)c1F [Example 50-10]
13,88%,CC(C)(O)[C@@H](Cc1ccccn1)NC(=O)c1cccc(F)c1-c1n[nH]c(-c2ccc(F)cc2)c1F [Example 33-2]
14,79%,O=C(N[C@H](Cc1ncccn1)[C@H](F)CO)c1cccc(F)c1-c1cc(-c2ccc(F)cc2)[nH]n1 [Example 43-29]

# Same assay, conditions: female SD rats, oral dose 3 mg/kg, icilin 1 mg/kg i.p. 1 hour after dosing, shakes counted for 5 minutes
row,% inhibition of Wet-Dog Shake,Compound
1,47%,O=C(N[C@@H](CO)C(O)c1ccccn1)c1cccc(Cl)c1-c1cc(-c2ccc(F)cc2)[nH]n1 (some centres unmarked) [Example 1-210]
2,52%,COC[C@@H](O)[C@@H](Cc1ccccn1)NC(=O)c1cccc(Cl)c1-c1cc(-c2ccc(F)cc2)[nH]n1 [Example 27-5]
3,99%,O=C(N[C@H](Cc1ccccn1)[C@H](F)CO)c1cccc(F)c1-c1cc(-c2ccc(Cl)cc2)[nH]n1 [Example 50-7]
4,82%,C[C@@](O)(CO)[C@@H](Cc1ccccn1)NC(=O)c1cccc(F)c1-c1cc(-c2ccc(F)cc2)[nH]n1 [Example 1-224]
5,48%,CC(CO)[C@@H](Cc1ccccn1)NC(=O)c1cccc(F)c1-c1cc(-c2ccc(Cl)cc2)[nH]n1 (some centres unmarked) [Example 1-162]
6,50%,O=C(N[C@@H](CO)Cc1ncccc1Cl)c1cccc(F)c1-c1cc(-c2ccc(F)cc2)[nH]n1 [Example 39-2]
7,41%,O=C(N[C@H](Cc1ccccn1)C[C@H](O)CO)c1cccc(F)c1-c1cc(-c2ccc(Cl)cc2)[nH]n1 [Example 54-7]
8,100%,"CC(C)(O)[C@@H](Cc1ccccn1)NC(=O)c1cccc(F)c1-c1cc(-c2ccc(F)cc2)[nH]n1 [Example 33-1, 3-Fluoro-2-[-5-(4-fluorophenyl)-1H-pyrazol-3-yl]-N-[(2R)-3-hydroxy-3-methyl-1-(pyridin-2-yl)butan-2-yl]benzamide]"
9,55%,O=C(N[C@@H](CO)Cc1ccccc1)c1ccccc1-c1cc(-c2ccc(F)c(F)c2)[nH]n1 [Example 1-62]
10,70%,"O=C(N[C@@H](CO)C(O)c1ccccn1)c1cccc(F)c1-c1cc(-c2ccc(F)cc2)[nH]n1 (single isomer, unassigned) [Example 54-1]"
11,88%,COC(c1ccccn1)[C@H](CO)NC(=O)c1cccc(F)c1-c1cc(-c2ccc(F)cc2)[nH]n1 (some centres unmarked) [Example 43-11]
12,48%,"O=C(N[C@@H](CO)C(O)c1ccccn1)c1cccc(F)c1-c1cc(-c2ccc(F)cc2)[nH]n1 (single isomer, unassigned) [Example 54-2]"
13,70%,O=C(N[C@H](Cn1cccn1)[C@H](F)CO)c1cccc(F)c1-c1cc(-c2ccc(F)cc2F)[nH]n1 [Example 43-46]
14,68%,COC(c1ccccn1)[C@@H](NC(=O)c1cccc(F)c1-c1cc(-c2ccc(F)cc2)[nH]n1)[C@H](O)CO (some centres unmarked) [Example 54-19]
15,34%,O=C(N[C@H](Cc1ccccn1)[C@H](O)CO)c1cccc(Cl)c1-c1cc(-c2ccc(F)cc2)[nH]n1 [Example 1-169]
16,37%,C[C@@](O)(CO)[C@@H](Cc1ccccn1)NC(=O)c1cccc(Cl)c1-c1cc(-c2ccc(F)cc2)[nH]n1 [Example 1-225]

row,% inhibition of Wet-Dog Shake,Compound
1,70%,O=C(N[C@@H](CO)C(O)c1ccccn1)c1ccccc1-c1n[nH]c(-c2ccc(F)cc2)c1F (some centres unmarked) [Example 1-205]
2,48%,"O=C1N[C@@H]([C@@H](Cc2ccccn2)NC(=O)c2cccc(F)c2-c2cc(-c3ccc(F)cc3)[nH]n2)CO1 [Example 47-1, 3-Fluoro-2-[5-(4-fluorophenyl)-1H-pyrazol-3-yl]-N-[(1R)-1-((4S)-2-oxo-1,3-oxazolidin-4-yl)-2-(pyridin-2-yl)ethyl]benzamide]"
3,71%,"C[C@@](Cc1ccccc1)(NC(=O)c1cccc(F)c1-c1cc(-c2ccc(F)cc2)[nH]n1)C(N)=O [Example 24-1, (2S)-2-{3-Fluoro-2-[5-(4-fluorophenyl)-1H-pyrazol-3-yl]benzoylamino}-2-methyl-3-phenylpropanamide]"
4,60%,O=C(N[C@@H](CO)Cc1ncccn1)c1cccc(F)c1-c1cc(-c2ccc(F)cc2)[nH]n1 [Example 1-174]
5,49%,O=C(N[C@@H](CCO)Cc1ccccn1)c1cccc(OC(F)(F)F)c1-c1cc(-c2ccc(F)cc2)[nH]n1 [Example 1-134]
6,75%,C[C@](O)(CO)[C@@H](Cc1ccccn1)NC(=O)c1cccc(F)c1-c1cc(-c2ccc(F)cc2)[nH]n1 [Example 1-217]
7,89%,COC(c1ccccn1)[C@H](CCO)NC(=O)c1cccc(F)c1-c1cc(-c2ccc(F)cc2)[nH]n1 (some centres unmarked) [Example 43-9]
8,56%,CO[C@H](CO)[C@@H](Cc1ncccc1C#N)NC(=O)c1cccc(F)c1-c1cc(-c2ccc(F)cc2)[nH]n1 [Example 27-16]
9,100%,CC(c1ccccn1)[C@H](CCO)NC(=O)c1cccc(F)c1-c1cc(-c2ccc(F)cc2)[nH]n1 (some centres unmarked) [Example 1-138]
10,90%,O=C(N[C@@H](CO)Cc1ccccn1)c1cccc(F)c1-c1n[nH]c(-c2ccc(F)cc2)c1F [Example 1-105]
11,40%,C[C@](O)(CO)[C@@H](Cc1ccccn1)NC(=O)c1cccc(Cl)c1-c1cc(-c2ccc(F)cc2)[nH]n1 [Example 1-218]
12,61%,COc1cccnc1C[C@H](CCO)NC(=O)c1cccc(F)c1-c1cc(-c2ccc(F)cc2)[nH]n1 [Example 1-108]
13,37%,O=C(N[C@@H](CO)Cc1cscn1)c1cccc(F)c1-c1cc(-c2ccc(F)cc2)[nH]n1 [Example 1-182]
14,89%,"O=C(NC(CCO)Cc1ccccn1)c1cccc(F)c1-c1cc(-c2ccc(F)cc2)[nH]n1 (centres unmarked) [Example 26-1, 3-Fluoro-2-[5-(4-fluorophenyl)-1H-pyrazol-3-yl]-N-[4-hydroxy-1-(pyridin-2-yl)butan-2-yl]benzamide]"
15,49%,COC(c1ccccn1)[C@H](CO)NC(=O)c1cccc(F)c1-c1cc(-c2ccc(F)cc2)[nH]n1 (some centres unmarked) [Example 43-6]

# Same assay, conditions: female SD rats, oral dose 10 mg/kg, icilin 1 mg/kg i.p. 1 hour after dosing, shakes counted for 5 minutes
row,% inhibition of Wet-Dog Shake,Compound
1,68%,O=C(N[C@@H](CO)Cc1ccccn1)c1ccccc1-c1cc(-c2ccccc2)[nH]n1 [Example 1-27]
2,59%,NC(=O)C[C@@H](Cc1ccccc1)NC(=O)c1cccc(F)c1-c1cc(-c2ccc(F)cc2)[nH]n1 [Example 1-128]
3,54%,NC(=O)[C@@H](Cc1ccccn1)NC(=O)c1ccccc1-c1cc(-c2ccccc2)[nH]n1 [Example 1-15]
4,70%,"O=C(NCCc1ccccn1)c1cccc(OC(F)(F)F)c1-c1cc(-c2ccccc2)[nH]n1 [Example 4-1, 2-(5-Phenyl-1H-pyrazol-3-yl)-N-[2-(pyridin-2-yl)ethyl]-3-trifluoromethoxybenzamide]"
